US10676465B2, “GLP-1 receptor agonists and uses thereof” (Pfizer Inc., priority 2018, dated 2020)
Read-outs that look alike come from different tables or passages of the source.

Assays:
human GLP-1R [1] = target: human GLP-1R (Homo sapiens (Human), UniProt P43220, L260F); assay: CHO GLP-1R Clone C6 - Assay 2 (HTRF cAMP agonist assay, low receptor density); settings: for Emax: read-out: Assay 2 Emax (%), CHO GLP-1R Clone C6 (low receptor density)
Protocol: CHO GLP-1R Clone C6—Assay 2
GLP-1R-mediated agonist activity was determined with a cell-based functional assay utilizing an HTRF (Homogeneous Time-Resolved Fluorescence) cAMP detection kit (cAMP HI Range Assay Kit; Cis Bio cat #62AM6PEJ) that measures cAMP levels in the cell. The method is a competitive immunoassay between native cAMP produced by the cells and exogenous cAMP labeled with the dye d2. The tracer binding is visualized by a mAb anti-cAMP labeled with Cryptate. The specific signal (i.e. energy transfer) is inversely proportional to the concentration of cAMP in either a standard or an experimental sample.
The human GLP-1R coding sequence (NCBI Reference Sequence NP_002053.3, including naturally-occurring variant Leu260Phe) was subcloned into pcDNA5-FRT-TO and a clonal CHO cell line stably expressing a low receptor density was isolated using the Flp-In™ T-Rex™ System, as described by the manufacturer (ThermoFisher).
Cells were removed from cryopreservation, re-suspended in 40 mL of Dulbecco's Phosphate Buffered Saline (DPBS—Lonza Cat #17-512Q) and centrifuged at 800×g for 5 minutes at 22° C. The DPBS was aspirated, and the cell pellet was re-suspended in 10 mL of complete growth medium (DMEM:F12 1:1 Mixture with HEPES, L-Gln, 500 mL (DMEM/F12 Lonza Cat #12-719F), 10% heat inactivated fetal bovine serum (Gibco Cat #16140-071), 5 mL of 100× Pen-Strep (Gibco Cat #15140-122), 5 mL of 100×L-Glutamine (Gibco Cat #25030-081), 700 μg/mL Hygromycin (Invitrogen Cat #10687010) and 15 μg/mL Blasticidin (Gibco Cat # R21001). A 1 mL sample of the cell suspension in growth media was counted on a Becton Dickinson ViCell to determine cell viability and cell count per mL. The remaining cell suspension was then adjusted with growth media to deliver 1600 viable cells per well using a Matrix Combi Multidrop reagent dispenser, and the cells were dispensed into a white 384 well tissue culture treated assay plate (Corning 3570). The assay plate was then incubated for 48 hours at 37° C. in a humidified environment (95% O2, 5% CO2)
Varying concentrations of each compound to be tested (in DMSO) were diluted in assay buffer [HBSS with Calcium/Magnesium (Lonza/BioWhittaker cat #10-527F)/0.1% BSA (Sigma Aldrich cat # A7409-1L)/20 mM HEPES (Lonza/BioWhittaker cat #17-737E)] containing 100 μM 3-isobutyl-1-methylxanthin (IBMX; Sigma cat #15879). The final DMSO concentration in the compound/assay buffer mixture is 1%.
After 48 hours, the growth media was removed from the assay plate wells, and the cells were treated with 20 μL of the serially diluted compound in assay buffer for 30 minutes at 37° C. in a humidified environment (95% O2, 5% CO2). Following the 30 minute incubation, 10 μL of labeled d2 cAMP and 10 μL of anti-cAMP antibody (both diluted 1:20 in cell lysis buffer; as described in the manufacturer's assay protocol) were added to each well of the assay plate. The plates were then incubated at room temperature and after 60 minutes, changes in the HTRF signal were read with an Envision 2104 multi-label plate reader using excitation of 330 nm and emissions of 615 and 665 nm. Raw data were converted to nM cAMP by interpolation from a cAMP standard curve (as described in the manufacturer's assay protocol) and the percent effect was determined relative to a saturating concentration of the full agonist GLP-1 (1 μM) included on each plate. EC50 determinations were made from agonist dose response curves analyzed with a curve fitting program using a 4-parameter logistic dose response equation.

human GLP-1R [2] = target: human GLP-1R (Homo sapiens, UniProt P43220, G168S); assay: CHO GLP-1R Clone H6 - Assay 1 (HTRF cAMP agonist assay); type: cell-based; settings: for EC50: CHO GLP-1R Clone H6, cAMP HTRF, geometric mean; for Emax / Assay 1 Emax (%): CHO GLP-1R Clone H6, arithmetic mean, relative to saturating GLP-1 (1 μM)
Sequence of human GLP-1R (Homo sapiens, UniProt P43220, G168S) (P43220 24-463 G168S limits assumed): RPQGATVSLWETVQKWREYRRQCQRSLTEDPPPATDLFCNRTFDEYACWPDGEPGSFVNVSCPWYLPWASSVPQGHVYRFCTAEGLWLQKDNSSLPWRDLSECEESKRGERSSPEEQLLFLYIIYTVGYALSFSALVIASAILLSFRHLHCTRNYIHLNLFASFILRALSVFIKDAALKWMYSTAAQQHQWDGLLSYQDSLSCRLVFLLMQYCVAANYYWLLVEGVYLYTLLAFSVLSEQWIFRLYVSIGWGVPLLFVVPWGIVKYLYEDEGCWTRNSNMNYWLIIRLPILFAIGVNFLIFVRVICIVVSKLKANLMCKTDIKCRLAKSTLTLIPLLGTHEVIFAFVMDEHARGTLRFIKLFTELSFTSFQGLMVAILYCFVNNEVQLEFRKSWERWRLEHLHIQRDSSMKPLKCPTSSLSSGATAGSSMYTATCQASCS
Protocol: GLP-1R-mediated agonist activity was determined with a cell-based functional assay utilizing an HTRF (Homogeneous Time-Resolved Fluorescence) cAMP detection kit (cAMP HI Range Assay Kit; CisBio cat #62AM6PEJ) that measures cAMP levels in the cell. The method is a competitive immunoassay between native cAMP produced by the cells and exogenous cAMP labeled with the dye d2. The tracer binding is visualized by a mAb anti-cAMP labeled with Cryptate. The specific signal (i.e. energy transfer) is inversely proportional to the concentration of cAMP in either standard or experimental sample.
The human GLP-1R coding sequence (NCBI Reference Sequence NP_002053.3, including naturally-occurring variant Gly168Ser) was subcloned into pcDNA3 (Invitrogen) and a cell line stably expressing the receptor was isolated (designated Clone H6).
Cells were removed from cryopreservation, re-suspended in 40 mL of Dulbecco's Phosphate Buffered Saline (DPBS—Lonza Cat #17-512Q) and centrifuged at 800×g for 5 minutes at 22° C. The cell pellet was then re-suspended in 10 mL of growth medium [DMEM/F12 1:1 Mixture with HEPES, L-Gln, 500 mL (DMEM/F12 Lonza Cat #12-719F), 10% heat inactivated fetal bovine serum (Gibco Cat #16140-071), 5 mL of 100× Pen-Strep (Gibco Cat #15140-122), 5 mL of 100×L-Glutamine (Gibco Cat #25030-081) and 500 μg/mL Geneticin (G418) (Invitrogen #10131035)]. A 1 mL sample of the cell suspension in growth media was counted on a Becton Dickinson ViCell to determine cell viability and cell count per mL. The remaining cell suspension was then adjusted with growth media to deliver 2000 viable cells per well using a Matrix Combi Multidrop reagent dispenser, and the cells were dispensed into a white 384 well tissue culture treated assay plate (Corning 3570). The assay plate was then incubated for 48 hours at 37° C. in a humidified environment in 5% carbon dioxide.
Varying concentrations of each compound to be tested (in DMSO) were diluted in assay buffer (HBSS with Calcium/Magnesium (Lonza/BioWhittaker cat #10-527F)/0.1% BSA (Sigma Aldrich cat # A7409-1L)/20 mM HEPES (Lonza/BioWhittaker cat #17-737E) containing 100 μM 3-isobutyl-1-methylxanthin (IBMX; Sigma cat #15879). The final DMSO concentration is 1%.
After 48 hours, the growth media was removed from the assay plate wells, and the cells were treated with 20 μL of the serially diluted compound in assay buffer for 30 minutes at 37° C. in a humidified environment in 5% carbon dioxide. Following the 30 minute incubation, 10 μL of labeled d2 cAMP and 10 μL of anti-cAMP antibody (both diluted 1:20 in cell lysis buffer; as described in the manufacturer's assay protocol) were added to each well of the assay plate. The plates were then incubated at room temperature and after 60 minutes, changes in the HTRF signal were read with an Envision 2104 multi-label plate reader using excitation of 330 nm and emissions of 615 and 665 nm. Raw data were converted to nM cAMP by interpolation from a cAMP standard curve (as described in the manufacturer's assay protocol) and the percent effect was determined relative to a saturating concentration of the full agonist GLP-17-36 (1 μM) included on each plate. EC50 determinations were made from agonist dose-response curves analyzed with a curve fitting program using a 4-parameter logistic dose response equation.

[3] = Assay 2 EC50 (nM), CHO GLP-1R Clone C6 (low receptor density), cAMP HTRF, geometric mean
[4] = arithmetic mean, relative to saturating GLP-1 (1 μM)
[5] = read-out: Assay 2 EC50, CHO GLP-1R Clone C6 (low receptor density), cAMP HTRF, geometric mean
[6] = EC50 in Assay 2, CHO GLP-1R Clone C6, cAMP, geometric mean of replicates

Sequence of human GLP-1R (Homo sapiens (Human), UniProt P43220, L260F) (P43220 24-463 L260F): as the sequence (P43220 24-463 G168S limits assumed) above, with S145G, L237F counted along it

EC50 (human GLP-1R [2]) [nM]	Emax (human GLP-1R [2]) [%]	Compound	other results
880	99	COCCn1c(CN2CCN(c3cccc4c3OC(c3ccc(Cl)cc3F)O4)CC2)nc2ccc(C(=O)O)cc21 (single isomer, unassigned) [Example 1, 2-({4-[2-(4-Chloro-2-fluorophenyl)-1,3-benzodioxol-4-yl]piperazin-1-yl}methyl)-1-(2-methoxyethyl)-1H-benzimidazole-6-carboxylic Acid]	EC50 (human GLP-1R [1]; [3]): > 20000 nM
6.6	–	COCCn1c(CN2CCN(c3cccc4c3OC(c3ccc(Cl)cc3F)O4)CC2)nc2ccc(C(=O)O)cc21 (single isomer, unassigned) [Example 2, 2-({4-[2-(4-Chloro-2-fluorophenyl)-1,3-benzodioxol-4-yl]piperazin-1-yl}methyl)-1-(2-methoxyethyl)-1H-benzimidazole-6-carboxylic Acid]	EC50 (human GLP-1R [1]; [3]): 260 nM; Emax (human GLP-1R [1]; [4]): 100%; Assay 1 Emax (%) (human GLP-1R [2]): 81%
0.3	92	CC1(c2ccc(C#N)cc2F)Oc2cccc(C3CCN(Cc4nc5ccc(C(=O)O)cc5n4C[C@@H]4CCO4)CC3)c2O1 (single isomer, unassigned) [Example 8]	EC50 (human GLP-1R [1]; [3]): 3.6 nM; Emax (human GLP-1R [1]; [4]): 91%
73	–	CC1(c2ccc(C#N)cc2F)Oc2cccc(C3CCN(Cc4nc5ccc(C(=O)O)cc5n4C[C@@H]4CCO4)CC3)c2O1 (single isomer, unassigned) [Example 9]	EC50 (human GLP-1R [1]; [3]): 1600 nM; Assay 2 Emax (%) (human GLP-1R [1]; CHO GLP-1R Clone C6 (low receptor density), arithmetic mean, relative to saturating GLP-1 (1 μM)): 90%; Assay 1 Emax (%) (human GLP-1R [2]): 88%
–	99	CC1(c2ccc(Cl)cn2)Oc2cccc(C3CCN(Cc4nc5ccc(C(=O)O)cc5n4C[C@@H]4CCO4)CC3)c2O1 (single isomer, unassigned) [Example 10]	Emax (human GLP-1R [1]; [4]): 96%
> 18000	100	COCCn1c(C2CC23CCN(c2cccc4c2OC(C)(c2ccc(Cl)cc2F)O4)CC3)nc2ccc(C(=O)O)cc21 (single isomer, unassigned) [Example 15, 2-{6-[2-(4-Chloro-2-fluorophenyl)-2-methyl-1,3-benzodioxol-4-yl]-6-azaspiro[2.5]oct-1-yl}-1-(2-methoxyethyl)-1H-benzimidazole-6-carboxylic Acid]	EC50 (human GLP-1R [1]; [3]): > 20000 nM
7.7	–	COCCn1c(C2CC23CCN(c2cccc4c2OC(C)(c2ccc(Cl)cc2F)O4)CC3)nc2ccc(C(=O)O)cc21 (single isomer, unassigned) [Example 16, 2-{6-[2-(4-Chloro-2-fluorophenyl)-2-methyl-1,3-benzodioxol-4-yl]-6-azaspiro[2.5]oct-1-yl}-1-(2-methoxyethyl)-1H-benzimidazole-6-carboxylic Acid]	EC50 (human GLP-1R [1]; [3]): 120 nM; Emax (human GLP-1R [1]; [4]): 64%; Assay 1 Emax (%) (human GLP-1R [2]): 90%
–	–	O=C(O)c1ccc2nc(CN3CCC(c4cccc5c4O[C@@H](c4ccc(Cl)cc4F)O5)CC3)n(C[C@@H]3CCO3)c2c1 [5, free acid, 2-({4-[(2S)-2-(4-Chloro-2-fluorophenyl)-1,3-benzodioxol-4-yl]piperidin-1-yl}methyl)-1-[(2S)-oxetan-2-ylmethyl]-1H-benzimidazole-6-carboxylic Acid]	EC50 (human GLP-1R [1]; [6]): 25 nM
–	–	C[C@]1(c2ccc(Cl)cc2F)Oc2cccc(C3CCN(Cc4nc5ccc(C(=O)O)cc5n4C[C@@H]4CCO4)CC3)c2O1 [7, free acid, 2-({4-[(2S)-2-(4-Chloro-2-fluorophenyl)-2-methyl-1,3-benzodioxol-4-yl]piperidin-1-yl}methyl)-1-[(2S)-oxetan-2-ylmethyl]-1H-benzimidazole-6-carboxylic Acid]	EC50 (human GLP-1R [1]; [6]): 4.3 nM
290	78	COCCn1c(CN2CCC(c3cccc4c3OC(C)(c3cccnc3)O4)CC2)nc2ccc(C(=O)O)cc21 (stereo not shown) [Example 11, 1-(2-Methoxyethyl)-2-({4-[2-methyl-2-(pyridin-3-yl)-1,3-benzodioxol-4-yl]piperidin-1-yl}methyl)-1H-benzimidazole-6-carboxylic Acid]	–
> 20000	–	COCCn1c(CN2CCN(c3cccc4c3OC(c3ccccc3)O4)CC2)nc2ccc(C(=O)O)cc21 (stereo not shown) [Example 22, 1-(2-methoxyethyl)-2-{[4-(2-phenyl-1,3-benzodioxol-4-yl)piperazin-1-yl]methyl}-1H-benzimidazole-6-carboxylic acid]	–
680	76	COCCn1c(CN2CCN(c3cccc4c3OC(c3ccccc3)O4)CC2)nc2ccc(C(=O)O)cc21 (stereo not shown) [Example 23, 1-(2-methoxyethyl)-2-{[4-(2-phenyl-1,3-benzodioxol-4-yl)piperazin-1-yl]methyl}-1H-benzimidazole-6-carboxylic acid]	–
480	87	COCCn1c(CN2CCC(c3cccc4c3OC(C)(c3cccc(C(F)(F)F)c3)O4)CC2)nc2ccc(C(=O)O)cc21 (stereo not shown) [Example 28, 1-(2-methoxyethyl)-2-[(4-{2-methyl-2-[3-(trifluoromethyl)phenyl]-1,3-benzodioxol-4-yl}piperidin-1-yl)methyl]-1H-benzimidazole-6-carboxylic acid]	–
760	85	COCCn1c(CN2CCC(c3cccc4c3OC(C)(c3cccc(C)n3)O4)CC2)nc2ccc(C(=O)O)cc21 (stereo not shown) [Example 36, 1-(2-methoxyethyl)-2-({4-[2-methyl-2-(6-methylpyridin-2-yl)-1,3-benzodioxol-4-yl]piperidin-1-yl}methyl)-1H-benzimidazole-6-carboxylic acid]	–
200	83	COCCn1c(CN2CCC(c3cccc4c3OC(C)(c3cccc(OC)c3)O4)CC2)nc2ccc(C(=O)O)cc21 (stereo not shown) [Example 39, 1-(2-methoxyethyl)-2-({4-[2-(3-methoxyphenyl)-2-methyl-1,3-benzodioxol-4-yl]piperidin-1-yl}methyl)-1H-benzimidazole-6-carboxylic acid]	–
160	78	CC1(c2ccc(Cl)cc2F)Oc2cccc(C3CCN(Cc4nc5ccc(C(=O)O)cc5n4CCN4CCOCC4)CC3)c2O1 (stereo not shown) [Example 44, 2-({4-[2-(4-chloro-2-fluorophenyl)-2-methyl-1,3-benzodioxol-4-yl]piperidin-1-yl}methyl)-1-[2-(morpholin-4-yl)ethyl]-1H-benzimidazole-6-carboxylic acid]	–
460	90	CC1(c2ccc(Cl)cc2F)Oc2cccc(C3CCN(Cc4nc5ccc(C(=O)O)cc5n4CCc4ncc[nH]4)CC3)c2O1 (stereo not shown) [Example 74, 2-({4-[2-(4-chloro-2-fluorophenyl)-2-methyl-1,3-benzodioxol-4-yl]piperidin-1-yl}methyl)-1-[2-(1H-imidazol-2-yl)ethyl]-1H-benzimidazole-6-carboxylic acid]	–
230	80	COCCn1c(CN2CCC(c3cccc4c3OC(C)(c3cccc(C)c3)O4)CC2)nc2ccc(C(=O)O)cc21 (stereo not shown) [Example 85, 1-(2-methoxyethyl)-2-({4-[2-methyl-2-(3-methylphenyl)-1,3-benzodioxol-4-yl]piperidin-1-yl}methyl)-1H-benzimidazole-6-carboxylic acid]	–
570	89	COCCn1c(CN2CCC(c3cccc4c3OC(C)(c3cccc(C#N)c3)O4)CC2)nc2ccc(C(=O)O)cc21 (stereo not shown) [Example 87, 2-({4-[2-(3-cyanophenyl)-2-methyl-1,3-benzodioxol-4-yl]piperidin-1-yl}methyl)-1-(2-methoxyethyl)-1H-benzimidazole-6-carboxylic acid]	–
> 20000	–	COCCn1c(CN2CCC(c3cccc4c3OC(C)(c3ccccn3)O4)CC2)nc2ccc(C(=O)O)cc21 (stereo not shown) [Example 90, 1-(2-methoxyethyl)-2-({4-[2-methyl-2-(pyridin-2-yl)-1,3-benzodioxol-4-yl]piperidin-1-yl}methyl)-1H-benzimidazole-6-carboxylic acid]	–
–	77	CC1(c2ccc(Cl)cn2)Oc2cccc(C3CCN(Cc4nc5ccc(C(=O)O)cc5n4C[C@@H]4CCO4)CC3)c2O1 (stereo partly drawn) [Example 95, 2-({4-[2-(5-chloropyridin-2-yl)-2-methyl-1,3-benzodioxol-4-yl]piperidin-1-yl}methyl)-1-[(2S)-oxetan-2-ylmethyl]-1H-benzimidazole-6-carboxylic acid]	–
–	–	C[C@]1(c2ccc(Cl)cc2F)Oc2cccc(C3CCN(Cc4nc5ccc(C(=O)O)c(F)c5n4C[C@@H]4CCO4)CC3)c2O1 [Example 100, 2-({4-[(2S)-2-(4-chloro-2-fluorophenyl)-2-methyl-1,3-benzodioxol-4-yl]piperidin-1-yl}methyl)-7-fluoro-1[(2S)-oxetan-2-ylmethyl]-1H-benzimidazole-6-carboxylic acid]	EC50 (human GLP-1R [1]; [5]): 7.6 nM; Emax (human GLP-1R [1]; [4]): 99%
–	–	O=C(O)c1ccc2nc(CN3CCC(c4cccc5c4O[C@@H](c4ccc(Cl)cc4F)O5)CC3)n(C[C@@H]3CCO3)c2c1F [Example 101, 2-({4-[(2S)-2-(4-chloro-2-fluorophenyl)-1,3-benzodioxol-4-yl]piperidin-1-yl}methyl)-7-fluoro-1-[(2S)-oxetan-2-ylmethyl]-1H-benzimidazole-6-carboxylic acid]	EC50 (human GLP-1R [1]; [5]): 19 nM; Emax (human GLP-1R [1]; [4]): 74%
600	86	COCCn1c(CN2CCC(c3cccc4c3OC(CO)(c3ccccc3)O4)CC2)nc2ccc(C(=O)O)cc21 (stereo not shown) [Example 102, 2-({4-[2-(hydroxymethyl)-2-phenyl-1,3-benzodioxol-4-yl]piperidin-1-yl}methyl)-1-(2-methoxyethyl)-1H-benzimidazole-6-carboxylic acid]	–

Compound	EC50 (human GLP-1R [2]) [nM]	Emax (human GLP-1R [2]) [%]	other results
CCn1cncc1Cn1c(CN2CCC(c3cccc4c3O[C@@](C)(c3ccc(Cl)cc3F)O4)CC2)nc2ccc(C(=O)O)cc21 (single isomer, unassigned) [Example 17, Ammonium 2-({4-[2-(4-chloro-2-fluorophenyl)-2-methyl-1,3-benzodioxol-4-yl]piperidin-1-yl}methyl)-1-[(I-ethyl-1H-imidazol-5-yl)methyl]-1H-benzimidazole-6-carboxylate]	0.079	–	EC50 (human GLP-1R [1]; [5]): 1.1 nM
